What follows are compounds tested against PDE10A (UniProt Q9Y233) (assay: PDE10 enzyme inhibition, IMAP TR-FRET assay (Example A, MPDE10A7 Enzyme Activity and Inhibition)). Details: approximate IC50 value, Table 10.
Format: biochemical
Outline: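 Compounds were preincubated 60 min at room temperature with PDE10A enzyme or tissue homogenate, then fluorescein-labeled cAMP or cGMP was added for 90 min. After stopping with IMAP binding reagents, TR-FRET was read and IC50s were fitted with a four-parameter logistic equation.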

| IC50 [nM] | Compound |
| --- | --- |
| 0.892 | Cn1c(=O)n([C@H]2C[C@H](Nc3nc4cc(F)ccc4s3)C2)c2ncc(F)cc21 [Example 210, 6-fluoro-3-(trans-3-((5-fluorobenzo[d]thiazol-2-yl)amino)cyclobutyl)-1-methyl-1H-imidazo[4,5-b]pyridin-2(3 H)-one] |
| 0.111 | O=C1N([C@H]2C[C@H](Nc3nc4ccccc4s3)C2)c2ncc(Cl)cc2C1(F)F [Example 211, 1-(trans-3-(benzo[d]thiazol-2-ylamino)cyclobutyl)-5-chloro-3,3-difluoro-1H-pyrrolo[2,3-b]pyridin-2(3 H)-one] |
| 0.449 | O=C1N([C@H]2C[C@H](Nc3nc4ccccc4s3)C2)c2ncccc2C1(F)F [Example 212, 1-(trans-3-(benzo[d]thiazol-2-ylamino)cyclobutyl)-3,3-difluoro-1-H-pyrrolo[2,3-b]pyridin-2-(3H)-one] |
| 2.87 | CC1(C)C(=O)N([C@H]2C[C@H](Nc3nc4ccccc4o3)C2)c2nccnc21 [Example 214, 5-(trans-3-(benzo[d]oxazol-2-ylamino)cyclobutyl)-7,7-dimethyl-5H-pyrrolo[2,3-b]pyrazin-6(7H)-one] |
| 0.978 | CC1(C)C(=O)N([C@H]2C[C@@H](Nc3nc4ccccc4s3)C2)c2nccnc21 [Example 215, 5-(cis-3-(benzo[d]thiazol-2-ylamino)cyclobutyl)-7,7-dimethyl-5H-pyrrolo[2,3-b]pyrazin-6(7H)-one] |
| 16.9 | Cn1c(=O)n([C@H]2C[C@@H](Nc3nc4ccccc4s3)C2)c2nccnc21 [Example 216, 1-(cis-3-(benzo[d]thiazol-2-ylamino)cyclobutyl)-3-methyl-1H-imidazo[4,5-b]pyrazin-2(3H)-one] |
| 38.3 | CC1(C)C(=O)N([C@H]2C[C@@H](NC(=O)c3nc4ccccc4[nH]3)C2)c2nccnc21 [Example 217, N-(cis-3-(7,7-dimethyl-6-oxo-6,7-dihydro-5H-pyrrolo[2,3-b]pyrazin-5-yl)cyclobutyl)-1H-benzo[d]imidazolE-2-carboxamide] |
| 1410 | Cc1ccc(N[C@H]2CC[C@@H](N3C(=O)C(C)(C)c4nccnc43)CC2)nc1 [Example 218, 7,7-dimethyl-5-(cis-4-((5-methylpyridin-2-yl)amino)cyclohexyl)-5H-pyrrolo[2,3-b]pyrazin-6(7H)-one] |
| 554 | O=c1n(C2CC2)c2nccnc2n1[C@H]1C[C@H](Nc2ncc3ccccc3n2)C1 [Example 219, 1-cyclopropyl-3-(trans-3-(quinazolin-2-ylamino)cyclobutyl)-1H-imidazo[4,5-b]pyrazin-2(3H)-one] |
| 2.35 | O=c1n(C2CC2)c2nccnc2n1[C@H]1C[C@H](Nc2nc3ccccc3o2)C1 [Example 220, 1-(trans-3-(benzo[d]oxazol-2-ylamino)cyclobutyl)-3-cyclopropyl-1H-imidazo[4,5-b]pyrazin-2(3H)-one] |
| 2.77 | O=c1n(C2CC2)c2nccnc2n1[C@H]1C[C@H](Nc2ccc(Cl)cn2)C1 [Example 221, 1-(trans-3-((5-chloropyridin-2-yl)amino)cyclobutyl)-3-cyclopropyl-1H-imidazo[4,5-b]pyrazin-2(3H)-one] |
| 7.61 | O=c1n(C2CC2)c2nccnc2n1[C@H]1C[C@H](Nc2nc3cc(F)ccc3s2)C1 [Example 222, 1-cyclopropyl-3-(trans-3-((5-fluorobenzo[d]thiazol-2-yl)amino)cyclobutyl)-1H-imidazo[4,5-b]pyrazin-2(3 H)-one] |
| 18.4 | O=c1n(C2CC2)c2nccnc2n1[C@H]1C[C@H](Nc2ccc3cccnc3n2)C1 [Example 223, 1-(trans-3-((1,8-naphthyridin-2-yl)amino)cyclobutyl)-3-cyclopropyl-1H-imidazo[4,5-b]pyrazin-2(3 H)-one] |
| 57.7 | COc1ccc2nc(N[C@H]3C[C@H](n4c(=O)n(C5CC5)c5nccnc54)C3)sc2c1 [Example 224, 1-cyclopropyl-3-(trans-3-((6-methoxybenzo[d]thiazol-2-yl)amino)cyclobutyl)-1H-imidazo[4,5-b]pyrazin-2(3 H)-one] |
| 10.8 | COc1ccc2nc(N[C@H]3C[C@H](n4c(=O)n(C5CC5)c5nccnc54)C3)sc2c1 [Example 225, 1-cyclopropyl-3-(trans-3-((6-methoxy-1,3-benzothiazol-2-yl)amino)cyclobutyl)-1,3-dihydro-2H-imidazo[4,5-b]pyrazin-2-one] |
| 1.2 | Cn1c(N[C@H]2C[C@H](n3c(=O)n(C4CC4)c4nccnc43)C2)nc2ccccc21 [Example 226, 1-cyclopropyl-3-(trans-3-((1-methyl-1H-benzo[d]imidazol-2-yl)amino)cyclobutyl)-1H-imidazo[4,5-b]pyrazin-2(3H)-one] |
| 1.87 | O=c1n(C2CC2)c2nccnc2n1[C@H]1CC[C@H](Nc2ccc3ncccc3n2)CC1 [Example 227, 1-(trans-4-((1,5-naphthyridin-2-yl)amino)cyclohexyl)-3-cyclopropyl-1H-imidazo[4,5-b]pyrazin-2(3H)-one] |
| 246 | O=c1n(C2CC2)c2nccnc2n1[C@H]1C[C@H](Nc2ccc3ncccc3n2)C1 [Example 228, 1-(trans-3-((1,5-naphthyridin-2-yl)amino)cyclobutyl)-3-cyclopropyl-1H-imidazo[4,5-b]pyrazin-2(3H)-one] |
| 10.1 | O=c1n(C2CC2)c2nccnc2n1[C@H]1C[C@H](Nc2nc3ccc(Cl)cc3o2)C1 [Example 229, 1-(trans-3-((6-chlorobenzo[d]oxazol-2-yl)amino)cyclobutyl)-3-cyclopropyl-1H-imidazo[4,5-b]pyrazin-2(3H)-one] |
| 0.393 | O=c1n(C2CC2)c2nc(Br)cnc2n1[C@H]1C[C@H](Nc2nc3ccccc3s2)C1 [Example 230, 1-(trans-3-(benzo[d]thiazol-2-ylamino)cyclobutyl)-5-bromo-3-cyclopropyl-1H-imidazo[4,5-b]pyrazin-2(3H)-one] |
| 31.5 | O=c1n(C2CC2)c2nc(Br)cnc2n1[C@H]1C[C@H](Nc2ncc3ccc(F)cc3n2)C1 [Example 231, 5-bromo-3-cyclopropyl-1-(trans-3-((7-fluoroquinazolin-2-yl)amino)cyclobutyl)-1H-imidazo[4,5-b]pyrazin-2(3H)-one] |

| Compound | IC50 [nM] |
| --- | --- |
| (R)-1-(trans-3-(benzo[d]thiazol-2-ylamino)cyclobutyl)-3-hydroxy-3-methyl-1H-pyrrolo[2,3-b]pyridin-2(3H)-one and (S)-1-(trans-3-(benzo[d]thiazol-2-ylamino)cyclobutyl)-3-hydroxy-3-methyl-1H-pyrrolo[2,3-b]pyridin-2(3H)-one [Example 181] | 2.86 |

Source: US9174992B2, “Heterobicyclic compounds” (Amgen Inc., priority 2012, dated 2015)
